According to paper PMC11540889, “In Vitro Cytotoxicity of Fluorinated Quaternary Ammonium Salts in Colorectal Cancer Cells and In Silico Pharmacology” (Advances in Pharmacological and Pharmaceutical Sciences, 2024):
Read-outs that look alike come from different tables or passages of the source.

Tests used:
[1] = Ex vivo MTT cytotoxicity, healthy murine colorectal tissue; assay type: cell-based, BALB/c mice; details: BALB/c, mouse, healthy murine colorectal tissue (MCRT) pieces, ex vivo, nontumoral control, MTT, 48 h, mean ± SD
Method: (§1) The compounds were solubilized in dimethyl sulfoxide (DMSO, Fischer Chemical, NJ, USA) at 50,000 μg/mL and stored at −20°C until use. From the stock solution, six serial 1:2 double dilutions of each compound were prepared to start with concentrations of 100, 50, 25, 12.5, 6.25, and 3.125 μg/mL, respectively. 5-FU, one of the conventional drugs to treat CRC [34], was used as an antitumor compound control at concentrations ranging between 800 and 0.625 μM.
(§2) SW948 (Dukes' Type C, Grade III, premetastatic colorectal adenocarcinoma—CCL-237), SW48 (Dukes' Type C, Grade IV, noninvasive colorectal adenocarcinoma—CCL231), and SW620 (Dukes' Type C, Grade IV invasive colorectal adenocarcinoma—CCL227) (American Type Culture Collection Manassas, VA, USA) were maintained in standard conditions at 37°C, without a CO2 atmosphere. PBMCs and MCRT were used as nontumoral control cells. PBMCs were obtained by healthy donors, separated using Histopaque-1077 (Sigma-Aldrich) and cultured in RPMI-1640 medium (Sigma-Aldrich) supplemented with 10% SFB and 1% penicillin/streptomycin [46]. In turn, MCRT were obtained from healthy BALB/c mice; for this, mice were euthanized with CO2 after previous sedation, the colorectal tissue removed, cleaned up, and cut into 2 × 2 mm pieces, suspended in supplemented DMEM, and used immediately after collection. […] Moreover, the inclusion of PBMC also served to assess the systemic toxicity of FQAS.
(§3) The cytotoxic activity of synthesized FQASs and QASs was studied by measuring cell viability/mortality, determined with the MTT (3-(4,5-dimethylthiazol-2-yl)-2,5-diphenyl tetrazole bromide) method (VWR Chemicals and Reagents Avantor), upon exposure of each cell line to six serial dilutions of the different compounds independently. Unexposed cells were included as viability controls, and cells exposed to 5-FU were included as cytotoxicity controls. Briefly, cells were adjusted to 200,000 cells/mL in the corresponding supplemented culture medium, and 100 μL (20,000 cells/well) were dispensed into each 96-well cell culture plate (Nunc, Thermo Fisher Scientific). Twelve hours after seeding the monolayer, 100 μL dilution of each compound was added to each well; the plates containing CRC were incubated at 37°C in the absence of CO2, while plates with PBMCs and MCRT were incubated at 37°C and 5% CO2 atmosphere. For MCRT, each piece was placed into each well of a 96-well plate and exposed to each dilution of the FQASs and QASs. After 48 h of incubation, 30 μL/well of MTT (5 mg/mL) was added, and plates were left at 37°C for 3 h, protected from light. After this time, 100 μL/well of DMSO was added to solubilize the formazan crystals formed. Plates were read at 570 nm on a Varioskan plate reader (Thermo Fisher), and nonspecific absorbance was corrected by subtracting the optical densities (OD) of the blank solutions corresponding to the supplemented culture media (RPMI 1640, DMEM, or L-15 media) and 0.5% DMSO. Each concentration of the FQASs, QASs, and controls was evaluated in duplicate in three independent experiments.
(§4) The percentages of viability (equation (1)) and mortality (equation (2)) were calculated with the net OD:(1) % viability=OD treated cell÷nontreated cells×100, (2) % mortality=100−% viability.
(§5) The %mortality data for each compound concentration was recorded, and the median cytotoxic concentration (CC50), corresponding to the concentration at which 50% of cell death occurs, was calculated using GraphPad Prism 8 software (GraphPad, Software, Inc., La Jolla, CA, USA). […] Lastly, the index of selectivity (IS) was calculated by dividing the CC50 value obtained for control cells (MCRT and PBMCs) by the CC50 value obtained for each CRC cell phenotype using the formula: IS = CC50 (MCRT or PBMC) ÷ CC50 (SW948, SW48 or SW620).

[2] = test system: SW48 (Dukes' Type C, Grade IV, noninvasive colorectal adenocarcinoma); test: MTT cytotoxicity, SW48 cells; details: for CC50: SW48 cells, MTT, 48 h, mean ± SD; for Index of selectivity PBMC / SW48: IS = CC50 PBMC ÷ CC50 SW48; for Index of selectivity MCRT / SW48: IS = CC50 MCRT ÷ CC50 SW48
Method: as §1, §2, §3, §4, §5

[3] = test system: CRC cell lines SW48, SW620, and SW948; test: MTT cytotoxicity across CRC cell lines (pooled statements, selectivity between lines); assay type: cell-based; details: for Index of selectivity SW48 vs. SW620: IS = CC50 SW48 ÷ CC50 SW620; for Index of selectivity SW948 vs. SW48: IS = CC50 SW948 ÷ CC50 SW48; for Index of selectivity SW948 vs. SW620: IS = CC50 SW948 ÷ CC50 SW620
Method: as §1, §2, §3, §4
The %mortality data for each compound concentration was recorded, and the median cytotoxic concentration (CC50), corresponding to the concentration at which 50% of cell death occurs, was calculated using GraphPad Prism 8 software (GraphPad, Software, Inc., La Jolla, CA, USA). […]

[4] = MTT cytotoxicity, peripheral blood mononuclear cells; assay type: cell-based; details: human, peripheral blood mononuclear cells (PBMC); PBMC, nontumoral control, MTT, 48 h, mean ± SD
Method: as §1, §2, §3, §4, §5

[5] = test system: SW948 (Dukes' Type C, Grade III, premetastatic colorectal adenocarcinoma); test: MTT cytotoxicity, SW948 cells; details: for CC50: SW948 cells, MTT, 48 h, mean ± SD; for Index of selectivity PBMC / SW948: IS = CC50 PBMC ÷ CC50 SW948; for Index of selectivity MCRT / SW948: IS = CC50 MCRT ÷ CC50 SW948
Method: as §1, §2, §3, §4, §5

[6] = test system: SW620 (Dukes' Type C, Grade IV invasive colorectal adenocarcinoma); test: MTT cytotoxicity, SW620 cells; details: for CC50: Homo sapiens; for Index of selectivity PBMC / SW620: IS = CC50 PBMC ÷ CC50 SW620; for Index of selectivity MCRT / SW620: IS = CC50 MCRT ÷ CC50 SW620
Method: as §1, §2, §3, §4, §5

Row | Compound | CC50 at 48 h [1] | CC50 ([2]; Homo sapiens, SW48, 48 h) | Index of selectivity PBMC / SW48 [2] | CC50 [2] | Index of selectivity SW48 vs. SW620 [3] | Index of selectivity SW948 vs. SW48 [3] | Index of selectivity SW948 vs. SW620 [3] | CC50 at 48 h [4] | CC50 ([5]; Homo sapiens, SW948, 48 h) | Index of selectivity PBMC / SW948 [5] | CC50 ([6]; 48 h) | Index of selectivity PBMC / SW620 [6] | Index of selectivity MCRT / SW48 [2] | Index of selectivity MCRT / SW948 [5] | Index of selectivity MCRT / SW620 [6] | other results
1 | C[N+](C)(CI)CCCCC=C(c1ccc(C(F)(F)F)cc1)c1ccc(C(F)(F)F)cc1 [Compound 13] | > 293 µM | 18.5 µM | 3.3 | 16.3 ± 2 µM | 1.0 | 1.7 | 1.7 | 53.9 ± 3 µM | 26.9 ± 4 µM | 2.0 | 16 ± 1.5 µM | 3.4 |  |  |  | 
2 | C[N+](C)(CCl)CCCCC=C(c1ccc(F)cc1)c1ccc(F)cc1 [Compound 3] | 130 ± 20 µM | 125 ± 5.1 µM | 0.32 |  | 1.9 | 0.4 | 0.8 | 39.7 ± 7.7 µM | 52.9 ± 13.8 µM | 0.8 | 64.5 ± 8.1 µM | 0.6 | 1.0 | 2.5 | 2.0 | 
3 | C[N+](C)(CI)CCCC=C(c1ccc(F)cc1)c1ccc(F)cc1 [Compound 2] | 205 ± 14.5 µM | 75.7 ± 14.2 µM | 0.47 |  | 2.7 | 1.0 | 2.8 | 35.6 ± 6.6 µM | 77.9 ± 9.1 µM | 0.5 |  | 1.3 | 2.7 | 2.6 | 7.3 | CC50 ([6]; SW-620, read-out: LC50 (Figure 2c)): 28.1 µM
4 | C[N+](C)(CCl)CCCC=C(c1cccc(C(F)(F)F)c1)c1cccc(C(F)(F)F)c1 [Compound 5] | 121 ± 5.4 µM | 43.5 µM | 0.66 | 52 ± 9.2 µM | 2.1 | 0.8 | 1.8 | 34.8 ± 6 µM | 24.5 µM | 0.8 | 24.5 ± 2.3 µM | 1.4 | 2.3 | 2.8 | 4.9 | CC50 [5]: 43.5 ± 4 µM; CC50 ([6]; SW-620): 52 µM
5 | C[N+](C)(C)CCCCC=C(c1ccc(C(F)(F)F)cc1)c1ccc(C(F)(F)F)cc1 [Compound 14] | 419 ± 15 µM | 16.3 µM | 5.0 | 18.5 ± 3.6 µM | 1.3 | 2.6 | 3.4 | 93.2 ± 13.1 µM | 49 ± 11.1 µM | 1.9 | 14.5 ± 2.9 µM | 6.4 | 22.7 | 8.6 | 28.9 | 
6 | C[N+](C)(CCl)CCCCC=C(c1ccc(C(F)(F)F)cc1)c1ccc(C(F)(F)F)cc1 [Compound 12] | 111 ± 16.7 µM | 48 ± 5.1 µM | 0.8 |  | 3.2 | 0.5 | 1.7 | 40.5 ± 9.5 µM | 25 ± 4.8 µM | 1.6 | 15.1 ± 1.5 µM | 2.7 | 2.3 | 4.4 | 7.3 | cytotoxicity level (high/moderate/low) [2]: Moderate; cytotoxicity level (high/moderate/low) [5]: High; cytotoxicity level (high/moderate/low) [6]: High
7 | C[N+](C)(CI)CCCC=C(c1cccc(C(F)(F)F)c1)c1cccc(C(F)(F)F)c1 [Compound 6] | 129 ± 11.3 µM | 55.5 ± 6.4 µM | 0.80 |  | 1.4 |  |  | 44.8 ± 6.4 µM | 45.6 ± 3.6 µM | 1.0 | 38.8 ± 2.1 µM | 1.2 | 2.3 | 2.8 | 3.3 | 
8 | C[N+](C)(CCl)CCCC=C(c1ccc(C(F)(F)F)cc1)c1ccc(C(F)(F)F)cc1 [Compound 8] | 102 ± 5 µM | 50.8 ± 4 µM | 0.8 |  | 2.6 | 0.4 | 1.1 | 42.3 ± 9.3 µM | 20.4 ± 6.2 µM | 2.1 | 19.2 ± 3.5 µM | 2.2 | 2.0 | 5.0 | 5.3 | 
9 | C[N+](C)(CI)CCCCC=C(c1ccc(F)cc1)c1ccc(F)cc1 [Compound 4] | 107 ± 4.5 µM | 100 ± 3 µM | 0.45 |  | 1.9 | 0.7 | 1.4 | 45.1 ± 7.3 µM | 72.8 ± 12.8 µM | 0.6 | 52.5 ± 5.6 µM | 0.9 | 1.1 | 1.5 | 2.0 | 
10 | C[N+](C)(C)CCCC=C(c1ccc(C(F)(F)F)cc1)c1ccc(C(F)(F)F)cc1 [Compound 10] | 119 ± 8.7 µM | 44 ± 6 µM | 1.2 |  | 2.3 | 0.3 | 0.7 | 51.4 ± 5.3 µM | 13.4 ± 3.9 µM | 3.8 | 18.8 ± 4.7 µM | 2.7 | 2.7 | 8.9 | 6.4 | 
